From US11945799B2, “4-ethynylpyridine derivatives useful as GCN2 inhibitors” (IP2IPO INNOVATIONS LIMITED, priority 2020, dated 2024)
Where two headings read alike, the source gives them in different places.

Assays:
[1] = biological target: T1, full-length human GCN2 enzyme (Homo sapiens, UniProt Q9P2K8); assay: GCN2 enzyme inhibition, LanthaScreen TR-FRET Kinase Activity assay (10 μM and 300 μM ATP); assay type: biochemical; settings: mean of replicate assays
T1 construct: purchased Carna Bioscience
Procedure: Biological and Pharmacokinetic Testing (a) GCN2 Enzyme Inhibition (10 μM and 300 μM Assays) Assay Protocol Overview:
The inhibitory activity of the Example compounds towards GCN2 enzyme was measured according to the description below, using a LanthaScreen TR-FRET (Time Resolved Fluorescence Resonance Energy Transfer) Kinase Activity assay distributed by ThermoFisher Scientific.
The full-length human GCN2 enzyme (UniProt accession number Q9P2K8) was used for all experiments (Carna Bioscience). The TR-FRET pair was composed of GFP-eIF2α and LanthaScreen Terbium-labeled anti-peIF2α (pSer52) Antibody.
Each example compound was dissolved in DMSO (0.15 mM) and dispensed in a 384-well plate by a D300 dispenser (Tecan) to a final concentration range 3000-0.13 nM using the logarithmic dilution mode in 2 replicates. Full inhibition (3000 nM commercial reference inhibitor) and DMSO vehicle control wells were also included on the same plate. All volumes were normalized to the final DMSO concentration of 2% of the reaction volume. Next, 5 μL of H2O was added to each well of the plate.
The enzyme mixture was prepared to obtain the following concentrations: • GCN2—30 nM • unloaded tRNA—0.3 nM • HEPES (pH=7.0)—100 mM • MgCl2—20 mM; MnCl2—10 mM
The mixture was applied by adding 5 μL to each well of the plate. The enzyme and the tested compound were then incubated at room temperature for 20 min while shaking at 450 rpm.
The substrate mixture was prepared to obtain the following concentrations: • GFP-eIF2α—240 nM • ATP—900 μM or 30 μM • HEPES (pH=7.0)—50 mM • MgCl2—10 mM • MnCl2—5 mM.
The mixture was applied by adding 5 μL to each well of the plate. Thus, the final concentrations of the 15 μL reaction mixture were as follows: • GCN2—10 nM • unloaded tRNA—0.1 nM • GFP-eIF2α—80 nM • ATP—300 μM or 10 μM • HEPES (1 M, pH=7.0)—50 mM • MgCl2—10 mM • MnCl2—5 mM.
The reaction was allowed to proceed at room temperature for 30 min while shaking at 450 rpm.
The antibody mixture was prepared to obtain the following concentrations: • Na2EDTA·2H2O—40 mM, in TR-FRET Dilution Buffer (Life technologies) • Tb—anti-peIF2a antibodies—4 nM.
The mixture was applied by adding 15 μL to each well. The plate was then incubated at room temperature for 60 min while shaking at 450 rpm and then read using Tecan Spark reader using specific TR-FRET filters.
The analysis of the GFP/Tb fluorescence results was conducted with GraphPad Prism to determine IC50 for each of the example compounds using 4-parameter model: log(inhibitor) vs. response-variable slope. IC50 and K, values were calculated in the usual way. The assay was carried out between 1 and 15 times. The results in the table below are the mean results from replicate assays for the compound in question, where applicable.

[2] = Kinetic solubility in PBS buffer pH 7.4; assay type: physicochemical; settings: aqueous buffer, kinetic from dmso stock; PBS buffer pH 7.4, 90 minutes at room temperature, from 10 mM DMSO stock
Procedure: The kinetic solubility assay investigates a solubility based on the amount of material which remains in solution after a precipitation process. […] Assay is performed using Multiscreen Vacuum Manifold. A buffer of interest (in standard protocol PBS buffer at pH=7.4 is used) is spiked with stock solution and incubated for 90 minutes at room temperature. After that time solution/suspension is filtrated. The concentration of each compound is determined on the base of prepared calibration curve using UV-VIS spectrophotometry method. The assay is made in triplicate.
Buffer of interest: 0.24 g of KH2PO4, 1.44 g of Na2HPO4, 0.2 g of KCl and 8 g NaCl and dissolve in 1 L distilled H2O; adjust pH to appropriate value (pH 7.4). 190 μl of buffer of interest was dispensed into the wells of a 96 well filter plate, followed by 10 μl of compound (10 mM stock solution in DMSO). The plate was shaken gently at room temperature for 90 minutes at 500 rpm using a BioSan, Plate Shaker-Thermostat, PST-60 HL-4. After 90 minutes, the plate was filtered using a vacuum manifold and vacuum pump. 100 μl of each filtrate and 100 μl acetonitrile was transferred to a 96 well UV-visible light transparent plate and the UV-visible absorption spectrum was measured using a Biotek Synergy 2 multiplate reader from 250-500 nm, interval range 10 nm. The amount of test compound was calculated using a calibration curve prepared by serial dilution of compounds in equivalent amounts of DMSO and acetonitrile.

[3] = read-out: GCN2 IC50 (nM) 300 uM ATP, 300 uM ATP
[4] = read-out: GCN2 Ki (nM) 300 uM ATP, 300 uM ATP
[5] = read-out: GCN2 IC50 (nM) 10 uM ATP, 10 uM ATP
[6] = read-out: GCN2 Ki (nM) 10 uM ATP, 10 uM ATP

T1 sequence (Q9P2K8 whole entry): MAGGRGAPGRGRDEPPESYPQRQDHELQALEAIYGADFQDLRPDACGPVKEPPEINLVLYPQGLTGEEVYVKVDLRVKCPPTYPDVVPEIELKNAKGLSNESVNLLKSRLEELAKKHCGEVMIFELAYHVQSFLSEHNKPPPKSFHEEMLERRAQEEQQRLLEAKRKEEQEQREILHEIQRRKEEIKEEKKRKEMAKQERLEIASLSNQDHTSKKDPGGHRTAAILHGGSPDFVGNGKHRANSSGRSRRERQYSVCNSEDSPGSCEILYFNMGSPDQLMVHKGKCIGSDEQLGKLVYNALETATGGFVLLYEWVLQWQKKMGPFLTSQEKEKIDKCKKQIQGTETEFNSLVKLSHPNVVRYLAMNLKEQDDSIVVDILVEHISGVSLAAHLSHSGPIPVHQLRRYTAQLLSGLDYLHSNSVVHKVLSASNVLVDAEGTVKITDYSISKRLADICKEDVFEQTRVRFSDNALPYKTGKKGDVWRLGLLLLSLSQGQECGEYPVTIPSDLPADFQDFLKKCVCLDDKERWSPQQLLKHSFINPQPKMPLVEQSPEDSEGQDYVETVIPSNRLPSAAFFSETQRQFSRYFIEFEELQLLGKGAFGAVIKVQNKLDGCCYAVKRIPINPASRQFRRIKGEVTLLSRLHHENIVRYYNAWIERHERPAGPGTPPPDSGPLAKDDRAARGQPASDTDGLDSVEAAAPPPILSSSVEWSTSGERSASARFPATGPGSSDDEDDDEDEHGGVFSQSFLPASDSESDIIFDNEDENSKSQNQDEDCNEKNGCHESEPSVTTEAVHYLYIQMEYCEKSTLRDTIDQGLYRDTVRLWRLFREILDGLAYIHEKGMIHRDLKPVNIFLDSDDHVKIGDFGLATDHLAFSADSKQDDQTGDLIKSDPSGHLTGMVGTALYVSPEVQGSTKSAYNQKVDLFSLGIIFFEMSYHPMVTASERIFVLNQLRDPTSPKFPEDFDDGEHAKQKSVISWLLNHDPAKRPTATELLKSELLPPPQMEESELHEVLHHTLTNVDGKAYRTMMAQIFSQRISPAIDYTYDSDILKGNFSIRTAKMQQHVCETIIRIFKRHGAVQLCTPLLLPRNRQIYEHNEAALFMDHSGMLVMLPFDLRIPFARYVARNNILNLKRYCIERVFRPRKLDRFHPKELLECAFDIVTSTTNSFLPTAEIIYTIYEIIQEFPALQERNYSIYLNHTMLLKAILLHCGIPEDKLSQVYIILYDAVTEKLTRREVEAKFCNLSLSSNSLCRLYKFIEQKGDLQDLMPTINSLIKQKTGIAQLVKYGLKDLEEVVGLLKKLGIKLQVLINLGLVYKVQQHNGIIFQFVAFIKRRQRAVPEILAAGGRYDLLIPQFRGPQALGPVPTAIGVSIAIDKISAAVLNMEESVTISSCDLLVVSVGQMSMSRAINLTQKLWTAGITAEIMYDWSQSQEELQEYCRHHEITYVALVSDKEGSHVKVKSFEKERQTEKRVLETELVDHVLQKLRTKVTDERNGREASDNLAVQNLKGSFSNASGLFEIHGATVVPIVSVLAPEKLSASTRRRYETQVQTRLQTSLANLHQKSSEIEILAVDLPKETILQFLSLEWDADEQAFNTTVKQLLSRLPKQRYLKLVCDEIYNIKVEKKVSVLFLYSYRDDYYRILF

Row | Compound | IC50 [1, 3] | Ki [1, 4] | solubility kinetic at 90 min [2] | IC50 [1, 5] | Ki [1, 6]
1 | COc1ncc(Cl)cc1S(=O)(=O)Nc1nccc(C#Cc2cnc(N)c3nccnc23)c1F [Example 38, N-[4-(2-{5-aminopyrido[3,4-b]pyrazin-8-yl}ethynyl)-3-fluoropyridin-2-yl]-5-chloro-2-methoxypyridine-3-sulfonamide] | 55.3 nM | 0.8 nM | 245 µg/mL | – | –
2 | COc1ncc(Cl)cc1S(=O)(=O)Nc1nccc(C#Cc2cnc(N)c3ncccc23)c1F [Example 4, N-{4-[2-(8-amino-1,7-naphthyridin-5-yl)ethynyl]-3-fluoropyridin-2-yl}-5-chloro-2-methoxypyridine-3-sulfonamide] | 17.6 nM | 0.3 nM | 29.5 µg/mL | 2.9 nM | 0.9 nM
3 | COc1ncc(Cl)cc1S(=O)(=O)Nc1nccc(C#Cc2cncc3nn(C)cc23)c1F [Example 22, 5-chloro-N-[3-fluoro-4-(2-{2-methyl-2H-pyrazolo[3,4-c]pyridin-4-yl}ethynyl)pyridin-2-yl]-2-methoxypyridine-3-sulfonamide] | 98.6 nM | 1.5 nM | 229 µg/mL | – | –
4 | COc1ncc(Cl)cc1S(=O)(=O)Nc1nccc(C#Cc2cnc3c(N)nccn23)c1F [Example 11, N-{4-[2-(8-aminoimidazo[1,2-a]pyrazin-3-yl)ethynyl]-3-fluoropyridin-2-yl}-5-chloro-2-methoxypyridine-3-sulfonamide] | 71.8 nM | 1.1 nM | 216 µg/mL | 2.3 nM | 0.7 nM
5 | COc1ncc(Cl)cc1S(=O)(=O)Nc1nccc(C#Cc2cnc3[nH]ncc3n2)c1F [Example 27, 5-chloro-N-[3-fluoro-4-(2-{1H-pyrazolo[3,4-b]pyrazin-5-yl}ethynyl)pyridin-2-yl]-2-methoxypyridine-3-sulfonamide] | 225 nM | 3.4 nM | 225 µg/mL | – | –
6 | COc1ncc(Cl)cc1S(=O)(=O)Nc1nccc(C#Cc2cnn3c(N)ccnc23)c1F [Example 7, N-{4-[2-(7-aminopyrazolo[1,5-a]pyrimidin-3-yl)ethynyl]-3-fluoropyridin-2-yl}-5-chloro-2-methoxypyridine-3-sulfonamide] | 105 nM | 1.6 nM | 216 µg/mL | 7.9 nM | 2.5 nM
7 | COc1ncc(Cl)cc1S(=O)(=O)Nc1nccc(C#Cc2cnc(N)nc2)c1Cl [Example 2, N-{4-[2-(2-aminopyrimidin-5-yl)ethynyl]-3-chloropyridin-2-yl}-5-chloro-2-methoxypyridine-3-sulfonamide] | 79 nM | 1.2 nM | 226 µg/mL | 8.1 nM | 2.6 nM
8 | COc1ncc(Cl)cc1S(=O)(=O)Nc1nccc(C#Cc2cncc3nccnc23)c1F [Example 5, 5-chloro-N-{4-[2-(pyrido[3,4-b]pyrazin-8-yl)ethynyl]-3-fluoropyridin-2-yl}-2-methoxypyridine-3-sulfonamide] | 186 nM | 2.8 nM | 223 µg/mL | 7.8 nM | 2.5 nM
9 | COc1ncc(Cl)cc1S(=O)(=O)Nc1nccc(C#Cc2cnc3[nH]c(=O)[nH]c3n2)c1F [Example 28, 5-chloro-N-[3-fluoro-4-(2-{2-oxo-1H,2H,3H-imidazo[4,5-b]pyrazin-5-yl}ethynyl)pyridin-2-yl]-2-methoxypyridine-3-sulfonamide] | 174 nM | 2.7 nM | 231 µg/mL | – | –
10 | COc1ncc(Cl)cc1S(=O)(=O)Nc1nccc(C#Cc2cnc3[nH]c(=O)[nH]c3c2)c1F [Example 32, 5-chloro-N-[3-fluoro-4-(2-{2-oxo-1H,2H,3H-imidazo[4,5-b]pyridin-6-yl}ethynyl)pyridin-2-yl]-2-methoxypyridine-3-sulfonamide] | 48.1 nM | 0.7 nM | 40.1 µg/mL | – | –
11 | O=S(=O)(Nc1nccc(C#Cc2cnc3[nH]ncc3c2)c1F)c1cc(Cl)cc(CO)c1Cl [Example 17, 2,5-dichloro-N-[3-fluoro-4-(2-{1H-pyrazolo[3,4-b]pyridin-5-yl}ethynyl)pyridin-2-yl]-3-(hydroxymethyl)benzene-1-sulfonamide] | 59 nM | 0.9 nM | 250 µg/mL | – | –
12 | COc1ncc(Cl)cc1S(=O)(=O)Nc1nccc(C#Cc2cnc3[nH]cnc3c2)c1F [Example 29, 5-chloro-N-[3-fluoro-4-(2-{3H-imidazo[4,5-b]pyridin-6-yl}ethynyl)pyridin-2-yl]-2-methoxypyridine-3-sulfonamide] | 654 nM | 10 nM | 231 µg/mL | – | –
13 | COc1ncc(Cl)cc1S(=O)(=O)Nc1nccc(C#Cc2cncc3cnn(C)c23)c1F [Example 24, 5-chloro-N-[3-fluoro-4-(2-{1-methyl-1H-pyrazolo[4,3-c]pyridin-7-yl}ethynyl)pyridin-2-yl]-2-methoxypyridine-3-sulfonamide] | 169 nM | 2.6 nM | 80.3 µg/mL | – | –
14 | Nc1ncc(C#Cc2ccnc(NS(=O)(=O)c3cc(Cl)cc(CO)c3Cl)c2F)cn1 [Example 16, N-{4-[2-(2-aminopyrimidin-5-yl)ethynyl]-3-fluoropyridin-2-yl}-2,5-dichloro-3-(hydroxymethyl)benzene-1-sulfonamide] | 111 nM | 1.7 nM | 218 µg/mL | – | –
15 | COc1ncc(Cl)cc1S(=O)(=O)Nc1nccc(C#Cc2cnc3[nH]nc(C)c3c2)c1F [Example 33, 5-chloro-N-[3-fluoro-4-(2-{3-methyl-1H-pyrazolo[3,4-b]pyridin-5-yl}ethynyl)pyridin-2-yl]-2-methoxypyridine-3-sulfonamide] | 21.7 nM | 0.3 nM | 245 µg/mL | 4.2 nM | 1.3 nM
16 | COc1ncc(Cl)cc1S(=O)(=O)Nc1nccc(C#Cc2cnc3ccnn3c2)c1F [Example 30, 5-chloro-N-[3-fluoro-4-(2-{pyrazolo[1,5-a]pyrimidin-6-yl}ethynyl)pyridin-2-yl]-2-methoxypyridine-3-sulfonamide] | 160 nM | 2.4 nM | > 245 µg/mL | – | –
